From US9050354B2, “Therapeutic antisense oligonucleotide compositions for the treatment of inflammatory bowel disease” (Atlantic Pharmaceuticals (Holdings) Limited, priority 2004, dated 2015)
Oligonucleotides are written 5' to 3', each unit as a sugar letter and its base; * is a phosphorothioate linkage, no mark a phosphodiester; rarer units and linkages stand in square brackets, end groups in braces. Plain capitals give the bases only. d = 2'-deoxy (DNA)

Tests used:
[1] = enema, 10 to 12 hours post-administration; about two thirds N-acetyl metabolite; cited from earlier work
[2] = test system: mild to moderate ulcerative colitis; settings: 240 mg/day rectally for 28 days; placebo 50%; cited from earlier work
[3] = in vivo
Experimental: A population of 15 patients with mild to moderate active left sided ulcerative colitis (DIA 3-10) with mucosal friability were studied.
Patients were given 240 mg of ISIS 2302 enema nightly for six weeks. Endoscopic mucosal biopsy samples were taken at baseline and at the end of therapy. Intensive 24-hour plasma pharmacokinetic (PK) sampling was conducted on all patients after the first and last enema dose for quantitative drug analysis. End of treatment colonic biopsy samples were collected for local quantitative PK evaluation from the descending colon.
PK and clinical data from the first 12 patients were analyzed.

[4] = human, in vivo, sc
[5] = human, in vivo, iv
Experimental: This was a double-blind, placebo-controlled, randomized (3:1, drug: placebo) study. Four healthy male volunteers were enrolled in each of seven single dose (0.06, 0.12, 0.24, 0.5, 1.0, 1.5 and 2.0 mg/kg) and multiple dose groups (0.2, 0.5, 1.0 and 2.0 mg/kg every other day for four doses). Groups were studied in a rising-dose fashion, and multiple dosing commenced after the first five single groups had completed the trial. […] Subjects remained recumbent, with continuous ECG monitoring for four hours after the beginning of each infusion. Before and at intervals after each infusion, supine blood pressure and pulse, clotting screen including aPTT, thrombin time, prothrombin time, serum complement split products C3a and C5a, neutrophil count, urine microproteins, and standard laboratory safety screen (hematology, blood biochemistry and urinalysis) were measured.
Complement split products were measured by commercially available C3a and C5a assay kits (Amersham).
Drug analysis was performed by capillary gel electrophoresis (CGE) as described by Leeds et al. (Anal. Biochem., 235:36-43, 1996). A phosphorothioate standard oligonucleotide composed of 27 thymidine nucleotides (T27) was added to both plasma and urine as an internal standard. The linear range of concentrations of oligonucleotides detectable in plasma using this method was 10 nM to 20 μM (approximately 0.07 to 140 μg/ml).

[6] = test system: mild to moderate active left sided ulcerative colitis; assay: Open label study CS-28: pharmacological activity of ISIS 2302 enema; format: in vivo, human; settings: 240 mg enema nightly for six weeks
Source text: All patients entering the study had moderate to severe mucosal disease at baseline (modified Mayo score, endoscopic appearance component of DAI, of 2 or greater at baseline). […] This was substantially higher than expected.

[7] = test system: moderate to severe ulcerative colitis; assay: Subset analysis of patients with moderate to severe disease; format: in vivo, human; settings: moderate to severe subset (n=26)
Experimental: An analysis of a subset of the population (n=26) of the study with moderate to severe disease was performed. Moderate to severe disease was defined as patients having the following scores using the DAI criteria: baseline stool frequency ≧2, rectal bleeding ≧2, endoscopy ≧2, and investigator's assessment ≧1.

[8] = test system: chronic, unremitting pouchitis; settings: HPMC enema 240 mg nightly for 6 weeks, twelve patients (p=0.001); cited from earlier work
Crohn's disease = settings: intravenous, cited from earlier work
[9] = test system: mild to moderate active distal ulcerative colitis
Experimental: The safety and efficacy of four different dosing regimens of ISIS 2302 enema was assessed for the treatment of ulcerative colitis were analyzed in a placebo-controlled, double-blinded Phase 2 study.
Patients were equally randomized into one of five study arms.
240 mg ISIS 2302 nightly for six weeks.
240 mg ISIS 2302 for 10 consecutive nights followed by 240 mg ISIS 2302 every other night for remaining 32 nights.
240 mg of ISIS 2302 every other night for six weeks.
120 mg of ISIS 2302 for 10 consecutive nights followed by 120 mg of ISIS 2302 every other night for the remaining 32 nights.
Placebo enema nightly for six weeks.
All patients received either a placebo enema or ISIS 2302 enema nightly for six weeks. Patients in arms 2 and 4 received placebo enemas on alternate nights when ISIS 2302 was administered on alternate days.

Compound | plasma levels [1] [µg/mL] | patients requiring additional surgical or medical intervention over baseline during six months [2] | Maximum plasma concentrations (Cmax) ([3]; human, 240 mg) [ng/mL] | Mean AUC ([3]; human, 240 mg) [µg·h/mL] | systemically available share of the administered dose [3] | plasma bioavailability [4] | n-1, n-2 and n-3 metabolites as share of total oligonucleotide in plasma [5] [%] | patients with DAI significantly improved from baseline to week 6 [6] | patients with mucosal healing and resolution of friability (modified Mayo score of 0 or 1) ([6]; at completion of the study) | change in DAI vs baseline and placebo ([7]; every other night dosing, through week 6) | change in DAI vs baseline and placebo ([7]; nightly dosing, through week 18) | primary endpoint of reduction of PDAI at week 6 [8] | efficacy in Phase II studies (Crohn's disease; some subsets of patients) | efficacy on clinical remission and disease activity index scores (Crohn's disease; two Phase III trials, moderate to severe Crohn's disease) | subjects remaining in remission at week 30 of those in remission after 6 weeks ([9]; 240 mg group, placebo 4 of 9 (p=0.12)) | median duration of response ([9]; 240 mg group, placebo <3 months) [months] | response rate vs placebo ([9]; 240 mg nightly, weeks 18 and 30 (p=0.04 and 0.03)) | stool frequency and rectal bleeding (components of DAI) ([9]; ISIS 2302 enema treatment) | response vs placebo ([9]; the 3 lower dose groups)
Nc1ccc(O)c(C(=O)O)c1 [mesalamine] | 2 |  |  |  |  |  |  |  |  |  |  |  |  |  |  |  |  |  | 
ISIS 2302: 20-base phosphorothioate oligodeoxynucleotide 5′-GCCCAAGCTGGCATCCGTCA-3′ hybridizing to the 3′-untranslated region of human ICAM-1 mRNA (antisense dG*dC*dC*dC*dA*dA*dG*dC*dT*dG*dG*dC*dA*dT*dC*dC*dG*dT*dC*dA) |  | None | 2.2 to 38 | 0.124 | less than 1% | about 50% | 20 | 9 of 12 | Seven of 12 | significant (p≦0.05) decrease in DAI | significant (p≦0.05) decrease in DAI | reached | suggested efficacy | ineffective | 10 of 13 | ≥ 6 | significantly better response rate than placebo | durable reduction | failed to demonstrate statistical improvement over placebo
